From US20220016168A1, “METHODS OF USING CD27 ANTIBODIES AS CONDITIONING TREATMENT FOR ADOPTIVE CELL THERAPY” (Celldex Therapeutics, Inc., priority 2018, published 2022)
Residue numbers refer to the chain shown, from its start.

How the values were obtained:
E.G7 cells = assay: E.G7 tumor model with OT-I T-cell adoptive therapy; assay type: in vivo, mice
donor origin CD8 T-cells = assay: In vivo expansion of adoptively transferred donor T-cells in pretreated recipient mice; settings: for donor CD8 T-cell expansion: 14 days post transfusion
[1] = target: T1, human CD70-Fc binding to CD27 on CD4+CD25+ Treg cells (Homo sapiens, UniProt P26842); assay: hCD70-Fc staining on hCD27+/+mCD27-/- splenocytes preincubated with Ab (ligand blocking); settings: 10 μg Ab 30 minutes on ice, vs hIgG1 isotype control
T1 construct: from tissue; host or cells: splenocytes from hCD27+/+ mCD27-/- transgenic mice
T1 sequence (P26842 20-260): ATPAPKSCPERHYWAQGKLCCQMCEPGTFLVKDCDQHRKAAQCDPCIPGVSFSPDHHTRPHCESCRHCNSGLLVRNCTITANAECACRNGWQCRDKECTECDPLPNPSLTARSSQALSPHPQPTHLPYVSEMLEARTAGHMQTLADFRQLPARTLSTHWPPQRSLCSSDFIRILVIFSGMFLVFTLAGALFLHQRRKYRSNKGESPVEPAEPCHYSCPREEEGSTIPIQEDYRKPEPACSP
Description: Splenocytes from hCD27^+/+mCD27^−/− mice were incubated with 10 μg Ab as indicated for 30 minutes on ice and then stained with a fluorescently labeled human CD70-Fc fusion protein (0.5 μg) and Abs for cell surface markers. Shown is a histogram of hCD70-Fc staining on gated CD4^+CD25^+ Treg cells.

WBC subpopulations = assay: Total and differential WBC counts and Treg recovery after conditioning treatment; assay type: in vivo, mice
[2] = test system: CD8, CD4 T-cells and Treg (CD4+Foxp3+); assay: T-cell depletion in spleen and pLNs of human CD27 transgenic mice (flow cytometry); assay type: in vivo
From the text: Spleens and pLNs were collected 7 days later and processed for flow cytometry analysis.
The same preparations of splenocytes and pLNs cells as in Example 1 were stained for CD8, CD4 and Foxp3.

CD8 T cells = assay: Ki-67 proliferation of donor and recipient CD8 T cells after varlilumab; assay type: in vivo, mice; settings: spleen, varlilumab pretreatment
From the text: (§1) CD8 T cells on day 0. Spleens and pLNs were collected on day 14 and processed for flow cytometry analysis. […] CD8, CD4 and Treg cell counts per μl blood were depicted in FIG. 11C (n=6 mice per group).
Percentage of ki-67^+ in gated donor origin or recipient origin CD8 T cells in the spleen of the same mice as in FIGS. 11A and 11B were depicted in FIG. 12A. Percentages of Ki-67^+ cells in gated CD8 T cells in the spleen and pLNs of the same mice as in FIG. 11C were depicted in FIG. 12B.

[3] = target: T2, w.t. CD27 extracellular domain fragment (Homo sapiens, UniProt P26842); assay: ELISA binding to w.t. CD27 fragment; settings: serially diluted supernatants
T2 construct: made in house; culture supernatant used
T2 sequence (P26842 21-130): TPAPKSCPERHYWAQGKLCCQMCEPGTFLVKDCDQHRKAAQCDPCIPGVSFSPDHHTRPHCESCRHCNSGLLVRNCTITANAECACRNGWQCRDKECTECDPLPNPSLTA
From the text: CD27 extracellular domain spanning amino acid residue 1-110 w.t. sequence and R87A mutation sequence according to Kabat numbering were cloned into an expression vector fused with a human kappa chain in the N-terminus and a flag-tag in the C-terminus. The CD27 fragments were expressed by transient transfection and quantified by an ELISA measuring concentration of human kappa chain in the culture supernatant.

recipient CD3 T-cells = assay: Recipient T-cell depletion after CD27 Ab pretreatment (flow cytometry); assay type: in vivo, mice; settings: for recipient CD3 T-cell counts on day 0: compared to isotype control
Description: Spleens and pLNs were collected from one set of mice on day 0 without cell transfusion and from another set of mice 14 days post intravenous (i.v.) transfusion with 2×10^6 CFSE-labeled w.t. CD8 T-cells for the assessment of recipient cell depletion (FIG. 4A) and donor cell expansion (FIG. 4B). Percentages of recipient CD3 T-cells (CD45.1^+CD45.2^−CD3^+) and donor origin CD8 T-cells (CD45.1^−CD45.2^+CD3^+CD8^+) out of total live cells in spleens and pLNs were determined by flow cytometry and the absolute numbers of donor origin cells were calculated based on total cell counts of spleens and pLNs.
These mice were bled and then transfused with 2×10^6 CD8 T-cells on day 0. Shown are the percentages of donor origin cells out of total live cells in the spleen and pLNs after 14 days of in vivo expansion (FIG. 10A) and the percentages of CD3 T cells in recipients' blood on day 0 before transfusion (FIG. 10B). Data are from one representative experiment of two performed, n=5 mice per group, *p<0.05, **p<0.01, ***p<0.001 indicating statistical significance compared to isotype control or between groups as specified by the horizontal line.
as §1

[4] = target: T3, CD27 extracellular domain fragment, amino acid residues 1-110, R87A mutation sequence, fused with a human … (human, UniProt P26842 21-130); assay: ELISA, CD27 fragment captured by anti-flag Ab
T3 construct: Used as culture supernatant of transient transfection; also called CD27R87A; mutant CD27 fragment; not shown: human kappa chain at the N-terminus; flag-tag at the C-terminus
T3 chain: T2 sequence (P26842 21-130) with R87A

[5] = test system: SIINFEKL-specific IFNγ spots; assay: OVA immunisation ELISPOT (co-stimulatory/agonistic activity); assay type: in vivo; settings: 5 mg OVA and 50 μg Ab on day 0, spleens 7 days later, hCD27+/-mCD27wt mice
From the text: (§2) Shown are […]-specific IFNγ spots number per spleen, n=4 or 5 mice per group (FIG. 9C). Data are from one representative experiment of two performed, *p<0.05, ***p<0.001, ****p<0.0001, indicating statistical significance compared to isotype control or between groups as specified by the horizontal line.
as §2, with “Spleens were collected 7 days later for ELISPOT analysis. Shown” for “Shown”, “n=5” for “n=4 or 5”, “10C).” for “9C).”, “**p<0.01,” for “***p<0.001, ****p<0.0001,”

[6] = target: T4, mouse CD27 on splenocytes (gated CD4+CD25+ Treg cells) of w.t. mice (mouse, UniProt P41272 24-250); assay: flow cytometry, labeled mCD70-Fc (0.5 ug) on gated CD4+CD25+ Treg cells of w.t. mouse splenocytes
T4 construct: whole, on cells; also called mCD27
T4 sequence (looked up): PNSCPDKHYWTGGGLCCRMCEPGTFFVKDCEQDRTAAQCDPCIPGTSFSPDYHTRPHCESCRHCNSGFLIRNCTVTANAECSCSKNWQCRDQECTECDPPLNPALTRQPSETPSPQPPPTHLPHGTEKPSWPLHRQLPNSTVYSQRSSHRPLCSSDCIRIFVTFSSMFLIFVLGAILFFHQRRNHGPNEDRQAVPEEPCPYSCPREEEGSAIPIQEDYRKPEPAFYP
From the text: FMO stands for fluorescence minus one, reflecting background fluorescence on the same gated cells.

Molecule: SIINFEKL (Ovalbumin peptide; listed as Gallus gallus) [reference compound]
- long-term survival with or without SIINFEKL peptide injection following OT-I T cell transfer (E.G7 cells; 100 μg i.p. day 8 or 20 μg day 17): no difference in long-term survival

Molecule: varlilumab: fully human monoclonal IgG1 antibody binding CD27; heavy/light chains SEQ ID NO: 68 and 69
- percentage of donor-origin CD8 T-cells out of total live cells, time course (donor origin CD8 T-cells; 200 μg day -7 and -2, spleens and pLNs day 7, 14 and 21, vs hIgG1): long-lasting accumulation of donor-origin CD8 T-cells
- transferred cell expansion in recipients lacking CD27 signaling (donor origin CD8 T-cells; 200 μg days -7 and -2, hCD27+/+mCD27-/- recipients, day 14): remarkable transferred cell expansion
- expansion of transfused CD8 T-cells compared to 2C2 or varlimut (donor origin CD8 T-cells; 300 μg days -14 and -2, hCD27+/+mCD27-/- mice, 14 days): greater expansion of transfused CD8 T-cells
- donor CD8 T-cell expansion (donor origin CD8 T-cells; 300 μg i.p. on day -2 only): minimal expansion
- donor CD8 T-cell expansion (donor origin CD8 T-cells; 300 μg i.p. on day -14 and -2, hCD27+/+mCD27-/- mice): greatest expansion
- donor CD8 T-cell expansion (donor origin CD8 T-cells; 300 μg i.p. on day -14 only): median level of expansion
- donor cell expansion (donor origin CD8 T-cells in blood, spleen and pLNs) (donor origin CD8 T-cells; Example 14 regimens, day 14, Cy and Flu vs control mice, varlilumab vs Cy and Flu): further increased
- CFSE dilution in donor-origin CD8 T-cells (donor origin CD8 T-cells; pretreatment day -14 and -2, vs hIgG1): enhanced proliferation
- hCD70-Fc staining on gated CD4+CD25+ Treg cells (ligand blocking) [1]: no hCD70 binding detected
- percentage of Treg cells out of total live cells in blood, spleen and pLNs on day 14 (WBC subpopulations; 14 days post cell transfer): remains low
- total and differential counts of WBC per μl blood on day of adoptive transfer (day 0) (WBC subpopulations; varlilumab 300 μg day -14 and -2, Cy 1 mg and Flu 0.1 mg day -4, -3, -2, hCD27+/+mCD27-/- mice): only depletes T-cells with the most reduction in Treg population and does not attack myeloid cells, B-cells and NK cells
- percentage and absolute numbers of Treg in peripheral lymph organs ([2]; 0.2 mg i.p., 7 days, spleen and pLNs, vs isotype control): reduced
- total T-cells (CD8 and CD4), percentage out of total live cells and absolute numbers ([2]; 0.2 mg i.p., spleens and pLNs 7 days later, hCD27+/-mCD27wt mice, vs isotype control): reduced
- pattern of T-cell deletion among T-cell subsets ([2]; Examples 1 and 2 together): preferentially on Treg and secondarily on CD4-Th, while the least reduction is on CD8 T-cells
- CD8 T-cell proliferation (Ki-67+) donor origin vs recipient origin cells (CD8 T cells; hCD27+/+mCD27-/- mice): significantly higher in donor origin cells
- CD8 T-cell proliferation (Ki-67+) donor origin vs recipient origin cells (CD8 T cells; hCD27+/+mCD27wt mice): no difference
- binding to w.t. CD27 fragment (OD450) [3]: recognizes w.t. CD27
- conditioning effect of one delayed dose alone (E.G7 cells; 300 μg day 14 only, OT-I day 16, survival): no conditioning effect by itself
- antitumor efficacy of varlilumab pretreatment followed by OT-I T-cell transfer (E.G7 cells; 300 μg day -2 and 5, OT-I day 7, tumor growth and survival): stronger antitumor efficacy than varlilumab alone
- antitumor efficacy of OT-I T-cells compared to hIgG1 isotype control (E.G7 cells; delayed therapy: 300 μg day 6 and 14, OT-I day 16): enhances antitumor efficacy of OT-I T-cells
- OT-I T-cells antitumor activity compared to hIgG1 control (E.G7 cells; varlilumab 300 μg day 7 and 14, or Cy 1 mg and Flu 0.1 mg day 13 and 14, OT-I day 16): facilitates OT-I T-cells antitumor activity
- effect of one delayed dose combined with Cy and Flu on OT-I T-cells antitumor activity (E.G7 cells; varlilumab 300 μg day 14 plus Cy 1 mg and Flu 0.1 mg day 13 and 14, survival): synergizes
- T cell reduction in the two strains of recipients (CD8, CD4 and Treg counts per μl blood) (recipient CD3 T-cells; 300 μg day 0, blood 14 days later, hCD27+/+mCD27-/- vs hCD27+/+mCD27wt): same extent of T cell reduction
- recipient CD3 T-cell counts on day 0 (recipient CD3 T-cells; 1 dose on day -14): reduced to the same extent
- recipient CD3 T-cell counts on day 0 (recipient CD3 T-cells; 2 doses on day -14 and -2): reduced to the same extent
- recipient CD3 T-cell counts on day 0 (recipient CD3 T-cells; Ab on day -2 only): no significant reduction
- recipient CD3 T-cell counts by day 14 compared to day 0 (recipient CD3 T-cells; Ab on day -14 only): remained the same
- recipient CD3 T-cell counts by day 14 compared to day 0 (recipient CD3 T-cells; varlilumab on day -2 only): further decreased
- recipient CD3 T-cell counts by day 14 compared to day 0 (recipient CD3 T-cells; varlilumab on day -14 and -2): further decreased

B1: varlilumab (antibody, human IgG1, kappa, V domains shown)
VH: QVQLVESGGGVVQPGRSLRLSCAASGFTFSSYDMHWVRQAPGKGLEWVAVIWYDGSNKYYADSVKGRFTISRDNSKNTLYLQMNSLRAEDTAVYYCARGSGNWGFFDYWGQGTLVTVSS
VL: DIQMTQSPSSLSASVGDRVTITCRASQGISRWLAWYQQKPEKAPKSLIYAASSLQSGVPSRFSGSGSGTDFTLTISSLQPEDFATYYCQQYNTYPRTFGQGTKVEIKR
notes: Fully human monoclonal anti-human CD27 antibody; also called 1F5; CDX-1127
- binding result [4]: no binding

B2: varlimut: a FCD265A mutated mouse IgG1 isotype of varlilumab (antibody, V domains shown)
VH: B1 VH
VL: DIQMTQSPSSLSASVGDRVTITCRASQGISRWLAWYQQKPEKAPKSLIYAASSLQSGVPSRFSGSGSGTDFTLTISSLQPEDFATYYCQQYNTYPRTFGQGTKVEIK
- co-stimulatory / agonistic activity (SIINFEKL-specific IFNγ spots number per spleen) [5]: no depleting and agonistic activities
- hCD70-Fc staining on gated CD4+CD25+ Treg cells (ligand blocking) [1]: blocks ligand binding
- depleting activity (percentages of CD3 T cells in recipients' blood on day 0) (recipient CD3 T-cells; 300 μg days -14 and -2, hCD27+/+mCD27-/- mice): no depleting and agonistic activities

B3: mouse CD70-Fc fusion protein (Fc fusion, UniProt O55237 45-195, looked up)
chain: SKQQQRLLEHPEPHTAELQLNLTVPRKDPTLRWGAGPALGRSFTHGPELEEGHLRIHQDGLYRLHIQVTLANCSSPGSTLQHRATLAVGICSPAAHGISLLRGRFGQDCTVALQRLTYLVHGDVLCTNLTLPLLPSRNADETFFGVQWICP
notes: Fluorescence-labeled; also called mCD70-Fc; not shown: Fc part
- binding result [6]: binds
